Like-named read-outs stand apart in the source and are kept apart here.
Assays:
normal cells = assay: Survival rate of normal cells after test compound is added (flow cytometry, Annexin V-FITC/PI); assay type: cell-based; settings: 18 h
Summary of the method: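 Patient specimens (e.g. AML, CD34+/CD38+ stem-cell marker) separated on Ficoll; mononuclear cells at 1×10^6/mL in serum-free IMDM treated 18 h with compound. Cells stained for stem-cell markers, then Annexin V-FITC/PI, and apoptosis measured by flow cytometry within one hour.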

cancer stem cells = assay: Survival rate of cancer stem cells after test compound is added (flow cytometry, Annexin V-FITC/PI, clinical specimen); assay type: cell-based, patient; settings: Homo sapiens, 18 h
Summary of the method: (§1)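 Steps: density-gradient isolation of mononuclear cells from fresh or cryopreserved clinical samples; 18-hour compound exposure at 1×10^6 cells/mL; staining for stem-cell surface markers, then Annexin V-FITC and PI; flow cytometric apoptosis analysis.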

[1] = tested on: PGE2 secreted by synoviocyte; assay: Content of PGE2 in culture supernatant of synoviocyte of RA model rats given test compound; assay type: in vivo; settings: rat RA model, dose 30 mg/kg.2d; normal control 8.34 ± 1.29, NaCl 32.44 ± 10.32
Summary of the method: (§2)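 Content of secreted TNF-α, PGE2 and IL-1β measured in supernatants of synoviocytes cultured from RA model rats. Animals dosed at 30 mg/kg.2d; normal control and NaCl groups included.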

[2] = tested on: IL-1β secreted by synoviocyte; assay: Content of IL-1β in culture supernatant of synoviocyte of RA model rats given test compound; assay type: in vivo; settings: rat RA model, dose 30 mg/kg.2d; normal control 0.16 ± 0.034, NaCl 0.49 ± 0.136
Summary of the method: as §2

cancer cells = assay: Survival rate of cancer cells after test compound is added (flow cytometry, Annexin V-FITC/PI, clinical specimen); assay type: cell-based, patient; settings: Homo sapiens, 18 h, read-out: Survival rate (%) All cells (Stem cells and ordinary cells)
Summary of the method: as §1

[3] = read-out: Survival rate (%) All cells (Stem cells and ordinary cells)
[4] = read-out: Survival rate (%) Stem cells
[5] = Head and neck squamous cell carcinomas

**Q.** How did the viability at 10 µM (normal cells; [3]) turn out when `C=C1C(=O)O[C@@H]2[C@@H]3[C@@H](CC[C@@]3(C)O)C(=C)CC[C@@H]12` [Compound 48] was run?
**A.** 92%

**Q.** What about the viability at 10 µM (normal cells; [4]) of the same compound?
**A.** 91%

**Q.** What about the viability at 20 µM (normal cells; [3]) of the same compound?
**A.** 91%

**Q.** And the viability at 20 µM (normal cells; [4])?
**A.** 89%

**Q.** What about the viability at 10 µM (cancer stem cells; AML) of the same compound?
**A.** 47%

**Q.** And the viability at 20 µM (cancer stem cells; AML)?
**A.** 38%

**Q.** What about the viability at 10 µM (cancer stem cells; Brain glioma) of the same compound?
**A.** 52%

**Q.** And the viability at 20 µM (cancer stem cells; Brain glioma)?
**A.** 43%

**Q.** And the viability at 10 µM (cancer stem cells; Brain tumor)?
**A.** 66%

**Q.** And the viability at 20 µM (cancer stem cells; Brain tumor)?
**A.** 53%

**Q.** What about the viability at 10 µM (cancer stem cells; Breast cancer) of the same compound?
**A.** 54%

**Q.** What about the viability at 20 µM (cancer stem cells; Breast cancer) of the same compound?
**A.** 47%

**Q.** And the viability at 10 µM (cancer stem cells; CLL)?
**A.** 46%

**Q.** What about the viability at 20 µM (cancer stem cells; CLL) of the same compound?
**A.** 38%

**Q.** And the viability at 10 µM (cancer stem cells; CML)?
**A.** 51%

**Q.** And the viability at 20 µM (cancer stem cells; CML)?
**A.** 46%

**Q.** And the viability at 10 µM (cancer stem cells; Children hepatoblastoma)?
**A.** 68%

**Q.** What about the viability at 20 µM (cancer stem cells; Children hepatoblastoma) of the same compound?
**A.** 56%

**Q.** And the viability at 10 µM (cancer stem cells; Colon adenocarcinoma)?
**A.** 58%

**Q.** What about the viability at 20 µM (cancer stem cells; Colon adenocarcinoma) of the same compound?
**A.** 49%

**Q.** What about the viability at 10 µM (cancer stem cells; Colorectal cancer) of the same compound?
**A.** 66%

**Q.** What about the viability at 20 µM (cancer stem cells; Colorectal cancer) of the same compound?
**A.** 55%

**Q.** What about the viability at 10 µM (cancer stem cells; Gastric cancer) of the same compound?
**A.** 51%

**Q.** And the viability at 20 µM (cancer stem cells; Gastric cancer)?
**A.** 39%

**Q.** And the viability at 10 µM (cancer stem cells; Gastrointestinal tumor)?
**A.** 57%

**Q.** What about the viability at 20 µM (cancer stem cells; Gastrointestinal tumor) of the same compound?
**A.** 52%

**Q.** And the viability at 10 µM (cancer stem cells; Glioma)?
**A.** 69%

**Q.** And the viability at 20 µM (cancer stem cells; Glioma)?
**A.** 60%

**Q.** What about the viability at 10 µM (cancer stem cells; [5]) of the same compound?
**A.** 64%

**Q.** What about the viability at 20 µM (cancer stem cells; [5]) of the same compound?
**A.** 58%

**Q.** What about the viability at 10 µM (cancer stem cells; Laryngeal cancer) of the same compound?
**A.** 63%

**Q.** What about the viability at 20 µM (cancer stem cells; Laryngeal cancer) of the same compound?
**A.** 55%

**Q.** And the viability at 10 µM (cancer stem cells; Liver cancer)?
**A.** 74%

**Q.** What about the viability at 20 µM (cancer stem cells; Liver cancer) of the same compound?
**A.** 61%

**Q.** And the viability at 10 µM (cancer stem cells; Lung adenocarcinoma)?
**A.** 67%

**Q.** And the viability at 20 µM (cancer stem cells; Lung adenocarcinoma)?
**A.** 55%

**Q.** What about the viability at 10 µM (cancer stem cells; Lung cancer) of the same compound?
**A.** 61%

**Q.** And the viability at 20 µM (cancer stem cells; Lung cancer)?
**A.** 54%

**Q.** And the viability at 10 µM (cancer stem cells; Malignant melanoma)?
**A.** 82%

**Q.** And the viability at 20 µM (cancer stem cells; Malignant melanoma)?
**A.** 76%

**Q.** And the viability at 10 µM (cancer stem cells; Nasopharynx cancer)?
**A.** 57%

**Q.** What about the viability at 20 µM (cancer stem cells; Nasopharynx cancer) of the same compound?
**A.** 48%

**Q.** What about the viability at 10 µM (cancer stem cells; Ovarian cancer) of the same compound?
**A.** 56%

**Q.** What about the viability at 20 µM (cancer stem cells; Ovarian cancer) of the same compound?
**A.** 45%

**Q.** And the viability at 10 µM (cancer stem cells; Pancreatic cancer)?
**A.** 55%

**Q.** What about the viability at 20 µM (cancer stem cells; Pancreatic cancer) of the same compound?
**A.** 49%

**Q.** And the viability at 10 µM (cancer stem cells; Prostate cancer)?
**A.** 62%

**Q.** And the viability at 20 µM (cancer stem cells; Prostate cancer)?
**A.** 51%

**Q.** And the viability at 10 µM (cancer stem cells; Retinoblastoma)?
**A.** 62%

**Q.** What about the viability at 20 µM (cancer stem cells; Retinoblastoma) of the same compound?
**A.** 54%

**Q.** And the viability at 10 µM (cancer stem cells; Skin cancer)?
**A.** 46%

**Q.** What about the viability at 20 µM (cancer stem cells; Skin cancer) of the same compound?
**A.** 39%

**Q.** What about the “Content of PGE2 in culture supernatant of synoviocyte (x ± s)” value [1] of the same compound?
**A.** 26.65 ± 2.45 ng/mL

**Q.** And the “Content of IL-1β in culture supernatant of synoviocyte (x ± s)” value [2]?
**A.** 0.38 ± 0.046 ng/mL

**Q.** And the viability at 10 µM (cancer cells; AML)?
**A.** 59%

**Q.** What about the viability at 20 µM (cancer cells; AML) of the same compound?
**A.** 48%

**Q.** And the viability at 10 µM (cancer cells; Brain glioma)?
**A.** 66%

**Q.** And the viability at 20 µM (cancer cells; Brain glioma)?
**A.** 54%

**Q.** What about the viability at 10 µM (cancer cells; Brain tumor) of the same compound?
**A.** 78%

**Q.** What about the viability at 20 µM (cancer cells; Brain tumor) of the same compound?
**A.** 69%

**Q.** And the viability at 10 µM (cancer cells; Breast cancer)?
**A.** 76%

**Q.** What about the viability at 20 µM (cancer cells; Breast cancer) of the same compound?
**A.** 58%

**Q.** What about the viability at 10 µM (cancer cells; CLL) of the same compound?
**A.** 67%

**Q.** And the viability at 20 µM (cancer cells; CLL)?
**A.** 48%

**Q.** And the viability at 10 µM (cancer cells; CML)?
**A.** 69%

**Q.** And the viability at 20 µM (cancer cells; CML)?
**A.** 51%

**Q.** What about the viability at 10 µM (cancer cells; Children hepatoblastoma) of the same compound?
**A.** 75%

**Q.** And the viability at 20 µM (cancer cells; Children hepatoblastoma)?
**A.** 68%

**Q.** What about the viability at 10 µM (cancer cells; Colon adenocarcinoma) of the same compound?
**A.** 66%

**Q.** What about the viability at 20 µM (cancer cells; Colon adenocarcinoma) of the same compound?
**A.** 56%

**Q.** And the viability at 10 µM (cancer cells; Colorectal cancer)?
**A.** 79%

**Q.** What about the viability at 20 µM (cancer cells; Colorectal cancer) of the same compound?
**A.** 67%

**Q.** And the viability at 10 µM (cancer cells; Gastric cancer)?
**A.** 66%

**Q.** What about the viability at 20 µM (cancer cells; Gastric cancer) of the same compound?
**A.** 48%

**Q.** What about the viability at 10 µM (cancer cells; Gastrointestinal tumor) of the same compound?
**A.** 73%

**Q.** And the viability at 20 µM (cancer cells; Gastrointestinal tumor)?
**A.** 62%

**Q.** And the viability at 10 µM (cancer cells; Glioma)?
**A.** 78%

**Q.** What about the viability at 20 µM (cancer cells; Glioma) of the same compound?
**A.** 74%

**Q.** And the viability at 10 µM (cancer cells; [5])?
**A.** 73%

**Q.** And the viability at 20 µM (cancer cells; [5])?
**A.** 68%

**Q.** And the viability at 10 µM (cancer cells; Laryngeal cancer)?
**A.** 76%

**Q.** And the viability at 20 µM (cancer cells; Laryngeal cancer)?
**A.** 66%

**Q.** And the viability at 10 µM (cancer cells; Liver cancer)?
**A.** 82%

**Q.** What about the viability at 20 µM (cancer cells; Liver cancer) of the same compound?
**A.** 73%

**Q.** What about the viability at 10 µM (cancer cells; Lung adenocarcinoma) of the same compound?
**A.** 77%

**Q.** And the viability at 20 µM (cancer cells; Lung adenocarcinoma)?
**A.** 64%

**Q.** And the viability at 10 µM (cancer cells; Lung cancer)?
**A.** 72%

**Q.** What about the viability at 20 µM (cancer cells; Lung cancer) of the same compound?
**A.** 67%

**Q.** And the viability at 10 µM (cancer cells; Malignant melanoma)?
**A.** 88%

**Q.** And the viability at 20 µM (cancer cells; Malignant melanoma)?
**A.** 86%

**Q.** What about the viability at 10 µM (cancer cells; Nasopharynx cancer) of the same compound?
**A.** 64%

**Q.** And the viability at 20 µM (cancer cells; Nasopharynx cancer)?
**A.** 59%

**Q.** What about the viability at 10 µM (cancer cells; Ovarian cancer) of the same compound?
**A.** 68%

**Q.** And the viability at 20 µM (cancer cells; Ovarian cancer)?
**A.** 61%

**Q.** What about the viability at 10 µM (cancer cells; Pancreatic cancer) of the same compound?
**A.** 68%

**Q.** And the viability at 20 µM (cancer cells; Pancreatic cancer)?
**A.** 62%

**Q.** And the viability at 10 µM (cancer cells; Prostate cancer)?
**A.** 75%

**Q.** What about the viability at 20 µM (cancer cells; Prostate cancer) of the same compound?
**A.** 62%

**Q.** What about the viability at 10 µM (cancer cells; Retinoblastoma) of the same compound?
**A.** 82%

**Q.** What about the viability at 20 µM (cancer cells; Retinoblastoma) of the same compound?
**A.** 69%

**Q.** What about the viability at 10 µM (cancer cells; Skin cancer) of the same compound?
**A.** 62%

**Q.** And the viability at 20 µM (cancer cells; Skin cancer)?
**A.** 47%
